Reference: PMC11539218 (Antimicrobial Agents and Chemotherapy, 2024)

Key:
[1] = tested on: L. (L.) infantum promastigotes; assay: Mitochondrial membrane electric potential (JC-1, flow cytometry); format: cell-based, Leishmania (L.) infantum; details: compound 1 169.2 µM, CCCP 10 µM; 2 and 4 h; JC-1 BL-2/BL-1 ratio; vs untreated
Protocol: Promastigotes (2 × 10^6/well) were treated with compound 1 (169.2 µM) for 2 and 4 h, at 24°C. Then, JC-1 (10 µM) was added and the parasites were incubated for 20 min. Fluorescence was measured in a flow cytometer with an excitation wavelength of 488 nm and emission of 530 (BL-1) and 574 nm (BL-2). Mitochondrial membrane potential was established through the ratio of BL-2/BL-1 channels ([19]). Carbonyl cyanide m-chlorophenylhydrazone (CCCP) (10 µM) was employed as positive control and untreated parasites as negative control.

[2] = tested on: L. (L.) infantum promastigotes; assay: DNA content / integrity (agarose gel electrophoresis); format: cell-based, Leishmania (L.) infantum; details: compound 1 169.2 µM, H2O2 10 mM; 24 h; 2% agarose gel
Protocol: Promastigotes (1 × 10^7/well) were treated with compound 1 (169.2 μM) in M199 medium supplemented with 10% FBS and 0.25% hemin, pH 7.2, for 24 h at 24°C. Then, the genetic material was extracted using the QIAamp DNA Mini Kit, according to the manufacturer’s instructions. Total DNA quantification was performed in a NanoDrop ND-1000 spectrophotometer (260/280 nm). The purified genetic material (300 ng) was analyzed by electrophoresis for 1 h at […] in a 2% agarose gel with ethidium bromide (0.5 µg/mL). Visualization was performed under UV light in a MiniBIS Pro transilluminator (DNR Bio Imaging System) ([21]). H2O2 (10 mM) was employed as positive control and untreated parasites as negative control ([26]).

[3] = tested on: L. (L.) infantum promastigotes; assay: Cell cycle (propidium iodide, flow cytometry); format: cell-based, Leishmania (L.) infantum; details: 24 h; compound 1 169.2 µM, miltefosine 25 µM
Protocol: Promastigotes (2 × 10^6/well) in exponential phase, were treated with compound 1 (169.2 µM) in M199 medium supplemented with 10% FBS and 0.25% hemin, pH 7.2, for 24 h at 24°C. In sequence, 70% (vol/vol) ice-cold ethanol was used for cell permeabilization overnight at −20°C. Then, the parasites were incubated with propidium iodide (10 µg/mL) and RNase A (20 µg/mL) for 30 min. […] Miltefosine (25 µM) was employed as positive control and untreated parasites as negative control ([25]).

[4] = set-up: method as in PMID 34695563; details: plasma half-life; cited from earlier work
[5] = tested on: L. (L.) donovani; set-up: method as in PMID 29061745; details: with subsequent increase in Ca2+ and collapse of mitochondrial membrane potential; cited from earlier work
[6] = tested on: L. (L.) infantum promastigotes; format: cell-based, Leishmania (L.) infantum; details: compound 1 169.2 µM, sodium azide 10 mM; 2 and 4 h; H2DCFDA; vs untreated
Protocol: Promastigotes (2 × 10^6/well) were treated with compound 1 (169.2 µM) for 2 and 4 h, at 24°C. Later, H2DCFDA (5 µM) was added and the parasites were incubated for 15 min. Fluorescence was monitored in a spectrofluorometer with excitation and emission wavelengths of 485 and 535 nm, respectively ([19]). Sodium azide (10 mM) was employed as positive control and untreated parasites as negative control.

[7] = tested on: L. (L.) infantum promastigotes; assay: Plasma membrane permeability (Sytox Green); format: cell-based, Leishmania (L.) infantum; details: compound 1 169.2 µM, Triton X-100 0.5%, up to 4 h
Protocol: Promastigotes (2 × 10^6/well) were pretreated with Sytox Green (1 µM) for 15 min, at 24°C. Then, compound 1 (169.2 µM) was added and the fluorescence was monitored every 20 min up to 4 h in a spectrofluorometer, with excitation and emission wavelengths of 485 and 535 nm, respectively ([17]). Triton X-100 (0.5% vol/vol) was employed as positive control and untreated parasites as negative control ([18]).

[8] = tested on: Peritoneal macrophages infected with L. (L.) infantum; assay: Cytokines in infected macrophages (ELISA); format: cell-based, BALB/c mice; details: positive control 5 µg/mL
Protocol: L. (L.) infantum (MHOM/BR/1972/LD) promastigotes were maintained in M199 medium supplemented with 10% FBS and 0.25% hemin, pH 7.2 at 24°C. Amastigotes were isolated from golden hamsters (M. auratus) by differential centrifugation of infected spleens and the parasite’s number was determined according to Stauber ([14]). Peritoneal macrophages were obtained from the peritoneal cavity of BALB/c mice and maintained in RPMI-1640 medium supplemented with 10% FBS, pH 7.2 at 37°C.
Peritoneal macrophages (1 × 10^6/well) were infected with L. (L.) infantum […] (10:1 amastigotes/macrophage) for 24 h, at 37°C with 5% CO2. Subsequently, compound 1 (10 and 60 µM) was added and the incubation followed the same conditions described above. Cell supernatants were collected after 48 and 72 h and the cytokines (IL-4, IL-10, IL-12, and INF-γ) were measured using the BD OptEIA Mouse ELISA set kits, according to the manufacturer’s instructions. Concanavalin A (5 µg/mL) was employed as positive control and untreated cells as negative control.

N#CC(C#N)=NNc1cccc(Cl)c1 [CCCP, Carbonyl cyanide m-chlorophenylhydrazone, reference compound]
mitochondrial membrane electric potential (ΔΨm) [1]: Maximum depolarization

OO [H2O2, reference compound]
integrity of the genetic content (DNA) [2]: DNA fragmentation

CCCCCCCCCCCCCCCCOP(=O)([O-])OCC[N+](C)(C)C [Miltefosine, reference compound]
Proportion of parasites in different phases of the cell cycle (% ± SD): G0/G1 [3]: 53.8 ± 0.1 %
Proportion of parasites in different phases of the cell cycle (% ± SD): M/G2 [3]: 18.1 ± 0.4%
Proportion of parasites in different phases of the cell cycle (% ± SD): S [3]: 10.5 ± 0.3%
Proportion of parasites in different phases of the cell cycle (% ± SD): Sub G0 [3]: 7.1 ± 0.6 %
T1/2 [4]: approximately 126 h
effect on acidocalcisomes [5]: alkalinization of acidocalcisomes

[N-]=[N+]=[N-].[Na+] [sodium azide, Sodium azide, reference compound]
ROS levels [6]: increased ROS production

Triton X-100 [reference compound]
plasma membrane permeability [7]: significative permeabilization

concanavalin A [reference compound]
production of cytokines (IL-4, IL-10, IL-12, INF-γ) [8]: tendency to increase
